Experimental data: US7235679B2, “Crystals of a vitamin D derivative and a method for the preparation thereof” (Chugai Seiyaku Kabushiki Kaisha, priority 1996, dated 2007)

How the values were obtained:
Format in all cases: physicochemical
[1] = Stability test of ED-71: purity measurement using normal phase HPLC; conditions: 265 nm
Protocol: (§1) Amorphous and crystalline ED-71 compounds were tested for stability at 10, 25 and […]. To estimate the stability, HPLC quantitative assay and absorbance and purity measurements were utilized. The purity was expressed as peak area ratio in percentage in HPLC (% P.A.R.). The test was carried out by using the following procedures:
(§2) About 2 mg portions of each of the amorphous and crystalline samples are precisely weighed into transparent 10 ml test tubes each having screw cap, individually.
(§3) The test tubes are purged with argon using a vacuum desiccator and a glove box. This purging procedure is not applied to the test tubes indicated as “1 M (air)” in the tables below.
(§4) The test tubes in groups are fixed in thermostatic baths which are respectively controlled at the above temperatures and allowed to stand in the dark. After one (1 W) or two (2 W) weeks or one month (1 M), the test tubes are removed from the baths and subjected to the following assay and measurements:
1 ml of the sample solution as prepared in “HPLC quantitative assay” above is dried in vacuo to remove the solvent (absolute ethanol). The residue is dissolved in 1 ml of methylene chloride. HPLC assay is carried out using 25 μl of this solution. • HPLC conditions used: • Column: YMC A-004SIL (4.6×300 mm) • Mobile phase: methylene chloride/methanol mixture (96/4) • Flow rate: 1.8 ml/min • Detection: at UV 265 nm.

[2] = Stability test of ED-71: absorbance measurement at 265 nm (E 1%); conditions: absorbance at 265 nm
Protocol: as §1, §2, §3, §4
1 ml of the sample solution as prepared in “HPLC quantitative assay” above is diluted with absolute ethanol to give a whole volume of 10 ml and this diluted solution is then measured for the absorbance at 265 nm using a ultraviolet spectrophotometer. The absorbance is converted into E 1% value which is derived from Lambert-Beer Law and the conversion is made according to the following equation: E1%=A/cb wherein A is absorbance, c is concentration in g/100 ml and b is length of optical path in cm across the test solution, which is commonly 1. (4) Purity Measurement

[3] = Stability test of ED-71: purity measurement using reverse phase HPLC; conditions: for Purity Measurement Using Reverse Phase HPLC, ED-71 peak / Purity Measurement Using Reverse Phase HPLC, Other peaks / Purity Measurement Using Reverse Phase HPLC, Pre Form peak: 265 nm
Protocol: as §1, §2, §3, §4
HPLC is carried out using 25 μl of the sample solution as prepared in “HPLC quantitative assay” above. • HPLC conditions used: • Column: Inertsil ODS-2 (5×250 mm) • Mobile phase: acetonitrile/water mixture (55/45) • Flow rate: 1 ml/min • Detection: at UV 265 and 220 nm.

Purity Measurement Using Normal Phase HPLC, ED-71 peak ([1]; 10° C., 1 M (air), dark): 95.26 % P.A.R | Purity Measurement Using Normal Phase HPLC, Other peaks ([1]; 10° C., 1 M (air), dark): 2.42 % P.A.R | Purity Measurement Using Normal Phase HPLC, Pre Form peak ([1]; 10° C., 1 M (air), dark): 2.31 % P.A.R | Purity Measurement Using Normal Phase HPLC, ED-71 peak ([1]; 10° C., 1 M, argon, dark): 94.58 % P.A.R | Purity Measurement Using Normal Phase HPLC, Other peaks ([1]; 10° C., 1 M, argon, dark): 3.09 % P.A.R | Purity Measurement Using Normal Phase HPLC, Pre Form peak ([1]; 10° C., 1 M, argon, dark): 2.33 % P.A.R | Purity Measurement Using Normal Phase HPLC, ED-71 peak ([1]; 10° C., 2 W, argon, dark): 95.46 % P.A.R | Purity Measurement Using Normal Phase HPLC, Other peaks ([1]; 10° C., 2 W, argon, dark): 2.28 % P.A.R | Purity Measurement Using Normal Phase HPLC, Pre Form peak ([1]; 10° C., 2 W, argon, dark): 2.27 % P.A.R | Purity Measurement Using Normal Phase HPLC, ED-71 peak ([1]; 10° C., time 0): 96.06 % P.A.R | Purity Measurement Using Normal Phase HPLC, Other peaks ([1]; 10° C., time 0): 2.27 % P.A.R | Purity Measurement Using Normal Phase HPLC, Pre Form peak ([1]; 10° C., time 0): 1.67 % P.A.R | Purity Measurement Using Normal Phase HPLC, ED-71 peak ([1]; 25° C., 1 W, argon, dark): 95.97 % P.A.R | Purity Measurement Using Normal Phase HPLC, Other peaks ([1]; 25° C., 1 W, argon, dark): 2.14 % P.A.R | Purity Measurement Using Normal Phase HPLC, Pre Form peak ([1]; 25° C., 1 W, argon, dark): 1.88 % P.A.R | Purity Measurement Using Normal Phase HPLC, ED-71 peak ([1]; 25° C., 2 W, argon, dark): 94.74 % P.A.R | Purity Measurement Using Normal Phase HPLC, Other peaks ([1]; 25° C., 2 W, argon, dark): 3.01 % P.A.R | Purity Measurement Using Normal Phase HPLC, Pre Form peak ([1]; 25° C., 2 W, argon, dark): 2.25 % P.A.R | Purity Measurement Using Normal Phase HPLC, ED-71 peak ([1]; 25° C., time 0): 96.06 % P.A.R | Purity Measurement Using Normal Phase HPLC, Other peaks ([1]; 25° C., time 0): 2.27 % P.A.R | Purity Measurement Using Normal Phase HPLC, Pre Form peak ([1]; 25° C., time 0): 1.67 % P.A.R | Purity Measurement Using Normal Phase HPLC, ED-71 peak ([1]; 40° C., 1 W, argon, dark): 94.47 % P.A.R | Purity Measurement Using Normal Phase HPLC, Other peaks ([1]; 40° C., 1 W, argon, dark): 3.00 % P.A.R | Purity Measurement Using Normal Phase HPLC, Pre Form peak ([1]; 40° C., 1 W, argon, dark): 2.53 % P.A.R | Purity Measurement Using Normal Phase HPLC, ED-71 peak ([1]; 40° C., 2 W, argon, dark): 92.12 % P.A.R | Purity Measurement Using Normal Phase HPLC, Other peaks ([1]; 40° C., 2 W, argon, dark): 4.89 % P.A.R | Purity Measurement Using Normal Phase HPLC, Pre Form peak ([1]; 40° C., 2 W, argon, dark): 2.99 % P.A.R | Purity Measurement Using Normal Phase HPLC, ED-71 peak ([1]; 40° C., time 0): 96.06 % P.A.R | Purity Measurement Using Normal Phase HPLC, Other peaks ([1]; 40° C., time 0): 2.27 % P.A.R | Purity Measurement Using Normal Phase HPLC, Pre Form peak ([1]; 40° C., time 0): 1.67 % P.A.R | E 1% ([2]; 10° C., 1 M (air), dark): 316.3 | E 1% ([2]; 10° C., 1 M, argon, dark): 320.5 | E 1% ([2]; 10° C., 2 W, argon, dark): 324.9 | E 1% ([2]; 10° C., time 0): 327.5 | E 1% ([2]; 25° C., 1 W, argon, dark): 323.0 | E 1% ([2]; 25° C., 2 W, argon, dark): 316.9 | E 1% ([2]; 25° C., time 0): 327.5 | E 1% ([2]; 40° C., 1 W, argon, dark): 313.2 | E 1% ([2]; 40° C., 2 W, argon, dark): 304.0 | E 1% ([2]; 40° C., time 0): 327.5 | 220 nm (%), ED-71 peak ([3]; 10° C., 1 M (air), dark): 92.07% | 220 nm (%), Other peaks ([3]; 10° C., 1 M (air), dark): 5.88% | 220 nm (%), Pre Form peak ([3]; 10° C., 1 M (air), dark): 2.04% | 220 nm (%), ED-71 peak ([3]; 10° C., 1 M, argon, dark): 92.85% | 220 nm (%), Other peaks ([3]; 10° C., 1 M, argon, dark): 5.13% | 220 nm (%), Pre Form peak ([3]; 10° C., 1 M, argon, dark): 2.02% | 220 nm (%), ED-71 peak ([3]; 10° C., 2 W, argon, dark): 92.85% | 220 nm (%), Other peaks ([3]; 10° C., 2 W, argon, dark): 5.13% | 220 nm (%), Pre Form peak ([3]; 10° C., 2 W, argon, dark): 2.02% | 220 nm (%), ED-71 peak ([3]; 10° C., time 0): 93.95% | 220 nm (%), Other peaks ([3]; 10° C., time 0): 4.70% | 220 nm (%), Pre Form peak ([3]; 10° C., time 0): 1.37% | 220 nm (%), ED-71 peak ([3]; 25° C., 1 W, argon, dark): 93.37% | 220 nm (%), Other peaks ([3]; 25° C., 1 W, argon, dark): 5.13% | 220 nm (%), Pre Form peak ([3]; 25° C., 1 W, argon, dark): 1.50% | 220 nm (%), ED-71 peak ([3]; 25° C., 2 W, argon, dark): 92.39% | 220 nm (%), Other peaks ([3]; 25° C., 2 W, argon, dark): 5.68% | 220 nm (%), Pre Form peak ([3]; 25° C., 2 W, argon, dark): 1.93% | 220 nm (%), ED-71 peak ([3]; 25° C., time 0): 93.95% | 220 nm (%), Other peaks ([3]; 25° C., time 0): 4.70% | 220 nm (%), Pre Form peak ([3]; 25° C., time 0): 1.37% | 220 nm (%), ED-71 peak ([3]; 40° C., 1 W, argon, dark): 90.00% | 220 nm (%), Other peaks ([3]; 40° C., 1 W, argon, dark): 7.71% | 220 nm (%), Pre Form peak ([3]; 40° C., 1 W, argon, dark): 2.29% | 220 nm (%), ED-71 peak ([3]; 40° C., 2 W, argon, dark): 87.40% | 220 nm (%), Other peaks ([3]; 40° C., 2 W, argon, dark): 9.72% | 220 nm (%), Pre Form peak ([3]; 40° C., 2 W, argon, dark): 2.88% | 220 nm (%), ED-71 peak ([3]; 40° C., time 0): 93.95% | 220 nm (%), Other peaks ([3]; 40° C., time 0): 4.70% | 220 nm (%), Pre Form peak ([3]; 40° C., time 0): 1.37% | Purity Measurement Using Reverse Phase HPLC, ED-71 peak ([3]; 10° C., 1 M (air), dark): 94.11 % P.A.R | Purity Measurement Using Reverse Phase HPLC, Other peaks ([3]; 10° C., 1 M (air), dark): 4.07 % P.A.R | Purity Measurement Using Reverse Phase HPLC, Pre Form peak ([3]; 10° C., 1 M (air), dark): 1.82 % P.A.R | Purity Measurement Using Reverse Phase HPLC, ED-71 peak ([3]; 10° C., 1 M, argon, dark): 93.05 % P.A.R | Purity Measurement Using Reverse Phase HPLC, Other peaks ([3]; 10° C., 1 M, argon, dark): 5.07 % P.A.R | Purity Measurement Using Reverse Phase HPLC, Pre Form peak ([3]; 10° C., 1 M, argon, dark): 1.88 % P.A.R | Purity Measurement Using Reverse Phase HPLC, ED-71 peak ([3]; 10° C., 2 W, argon, dark): 94.48 % P.A.R | Purity Measurement Using Reverse Phase HPLC, Other peaks ([3]; 10° C., 2 W, argon, dark): 3.77 % P.A.R | Purity Measurement Using Reverse Phase HPLC, Pre Form peak ([3]; 10° C., 2 W, argon, dark): 1.75 % P.A.R | Purity Measurement Using Reverse Phase HPLC, ED-71 peak ([3]; 10° C., time 0): 95.38 % P.A.R | Purity Measurement Using Reverse Phase HPLC, Other peaks ([3]; 10° C., time 0): 3.47 % P.A.R | Purity Measurement Using Reverse Phase HPLC, Pre Form peak ([3]; 10° C., time 0): 1.16 % P.A.R | Purity Measurement Using Reverse Phase HPLC, ED-71 peak ([3]; 25° C., 1 W, argon, dark): 94.78 % P.A.R | Purity Measurement Using Reverse Phase HPLC, Other peaks ([3]; 25° C., 1 W, argon, dark): 3.95 % P.A.R | Purity Measurement Using Reverse Phase HPLC, Pre Form peak ([3]; 25° C., 1 W, argon, dark): 1.27 % P.A.R | Purity Measurement Using Reverse Phase HPLC, ED-71 peak ([3]; 25° C., 2 W, argon, dark): 94.20 % P.A.R | Purity Measurement Using Reverse Phase HPLC, Other peaks ([3]; 25° C., 2 W, argon, dark): 4.08 % P.A.R | Purity Measurement Using Reverse Phase HPLC, Pre Form peak ([3]; 25° C., 2 W, argon, dark): 1.72 % P.A.R | Purity Measurement Using Reverse Phase HPLC, ED-71 peak ([3]; 25° C., time 0): 95.38 % P.A.R | Purity Measurement Using Reverse Phase HPLC, Other peaks ([3]; 25° C., time 0): 3.47 % P.A.R | Purity Measurement Using Reverse Phase HPLC, Pre Form peak ([3]; 25° C., time 0): 1.16 % P.A.R | Purity Measurement Using Reverse Phase HPLC, ED-71 peak ([3]; 40° C., 1 W, argon, dark): 92.47 % P.A.R | Purity Measurement Using Reverse Phase HPLC, Other peaks ([3]; 40° C., 1 W, argon, dark): 5.55 % P.A.R | Purity Measurement Using Reverse Phase HPLC, Pre Form peak ([3]; 40° C., 1 W, argon, dark): 1.98 % P.A.R | Purity Measurement Using Reverse Phase HPLC, ED-71 peak ([3]; 40° C., 2 W, argon, dark): 90.68 % P.A.R | Purity Measurement Using Reverse Phase HPLC, Other peaks ([3]; 40° C., 2 W, argon, dark): 6.78 % P.A.R | Purity Measurement Using Reverse Phase HPLC, Pre Form peak ([3]; 40° C., 2 W, argon, dark): 2.53 % P.A.R | Purity Measurement Using Reverse Phase HPLC, ED-71 peak ([3]; 40° C., time 0): 95.38 % P.A.R | Purity Measurement Using Reverse Phase HPLC, Other peaks ([3]; 40° C., time 0): 3.47 % P.A.R | Purity Measurement Using Reverse Phase HPLC, Pre Form peak ([3]; 40° C., time 0): 1.16 % P.A.R
SMILES: C=C1/C(=C\C=C2/CCC[C@@]3(C)C2CC[C@@H]3[C@H](C)CCCC(C)(C)O)C[C@@H](O)[C@@H](OCCCO)[C@@H]1O (stereo partly drawn) [Amor., 1α,25-dihydroxy-2β-(3-hydroxypropoxy)vitamin D3]
